Data set [1] is described as follows: Aqueous solubility observation. The class given is physicochemical.
The nature of data set [2]: UV-Vis absorbance, E/Z isomerization with violet and green light. The class given is physicochemical. The note with it: UV-Vis absorbance in DMSO. The method, then:
Compounds were dissolved in DMSO at 250 μM and 260 μM for TRPswitch-A and TRPswitch-B, respectively and UV-Vis absorbance was measured using a NanoDrop 1000 (Thermo Scientific).

Data set [3] in a line: Z→E thermal isomerisation kinetics. The class given is physicochemical. How it is done:
In order to determine the Z→E thermal isomerisation kinetics in DMSO-d6 a ˜20 mM solution of the relevant compound was irradiated using a Luzchem LZC-4V photoreactor fitted with 12×8 W LZC-420 lamps (420 nm peak emission) until no further change was observable by ^1H NMR. For 30% water:DMSO samples, a 15 μM solution of the relevant compound was irradiated in a quartz cuvette using 365 nm LEDs (3×800 mW Nichia NCSU276A) until no further change was observed by UV-Vis spectroscopy. Compounds (˜25 μM solutions in DMSO) were treated analogously. In the case of compounds studied by NMR, the change in Z-isomer percentage was followed as a function of time through integration of the relevant peaks. […]
For data collected via ^1H NMR, the natural log of the Z isomer concentration was plotted against time to yield a straight line implying first order kinetics. The gradient of this line was used to determine the rate constant for Z→E conversion from which the thermal half-life could be calculated:
For data collected via UV-Vis Spectroscopy, absorbance data at a fixed wavelength was fitted using the following, first order equation: […]
where k represents the rate constant; A∞, A0 and At are the absorbances of the pure E-state, Z-rich state, and time t, respectively. […]

The subject of a further data set is Trpa1b mutant larvae. The following applies: previously identified; cited from earlier work.
For data set [4], the system named is wild-type zebrafish larvae. The data set is described as follows: Behavioral assay: light-induced motion response of wild-type larvae. The following applies: DABCO, singlet oxygen quencher. The class given is in vivo, Zebrafish (Danio rerio). How it is done: A total of 1,000 compounds were selected from the ChemBridge Corp. catalog. Compounds were dissolved in DMSO at a stock concentration of 1 μg/μL (˜1.5 mM). The library was screened at a 1:100 dilution in E3 solution for a final concentration of ˜15 μM. Negative controls were treated with an equal volume of DMSO. Groups of 3 larvae at 3 days post fertilization (dpf) were distributed into the wells of 96-well clear bottom black microplates (07-200-567; Fisher Scientific) in 150 μL E3 before the addition of small molecules. Stock solutions of compounds were added directly to zebrafish in the wells of a 96 well plate (Corning 3631), mixed, and allowed to incubate for 1 h in the dark at 28.5° C. prior to behavioral evaluation in the behavioral assay. Ordering information: 1 (5533696; ChemBridge); 3 (5538408; ChemBridge).
Larvae in each of the wells were exposed to four 1 second flashes of light stimulus in the following order: 450-500 nm (WL1), 415-455 nm (WL2), 352-402 nm (WL3), white light (WL4), with a 5 second inter-stimulus interval. Digital video recording was performed for 5 seconds before the first light stimuli and continued throughout the stimulation sequence. Band pass filters (Semrock FF02-475/50, FF02-435/40, FF01-377/50) were used to restrict the excitation light to the indicated wavelengths. […] 290 frames of digital video were recorded per well at 10 FPS using an EMCCD camera (C9100; Hamamatsu) mounted on an inverted compound microscope (AxioObserver A1; Zeiss) with a NA 0.03 1.25× objective and a barrier with a 0.7 mm diameter opening to restrict light scattering to the sample. MetaMorph software (Molecular Devices) was used to control the execution of TTL signals and camera capture using the built-in stream acquisition with trigger function. Each video was saved for review. Light stimuli were generated with an ozone free 300-Watt xenon bulb housed in a Lambda LS illuminator (Sutter Instruments). A dichroic mirror (T510LPXRXT; Chroma) was used for appropriate excitation of samples and bright field acquisition. Schott longpass absorption glass (RG610; Chroma) was added in the transmitted light path to reduce unwanted excitation to the well and to provide sufficient light for video recording. All behavioral experiments were conducted at room temperature. […]
To analyze digital video recordings, custom MetaMorph software scripts were used to automatically threshold the video to identify the area of larvae in each frame. Threshold images of the frames after each light activation event were overlaid to calculate a new combined threshold area. The motion index was calculated as the percentage change between the threshold area in the frame right before light activation and the new combined threshold area. This motion index correlates with the overall amount of motion in the well.

In data set [5] the test system is wild-type zebrafish larvae. The note with it: reference [23]; cited from earlier work.

Consider `Cc1nn(C)c(C)c1/N=N/c1ccc(NC(=O)c2ccco2)cc1NC(=O)c1ccco1` [Compound 8, (E)-N,N′-(4-((1,3,5-trimethyl-1H-pyrazol-4-yl)diazenyl)-1,3-phenylene)bis(furan-2-carboxamide)], for which the aqueous solubility result in data set [1] is on record as “some aqueous solubility issues”. For the same molecule, in data set [2], the “E/Z photoswitching with violet and green light” value is on record as “quantitative photoswitching in both directions”. The “thermal half-lives” value in data set [3] was “long thermal half-lives”.
Regarding `Cc1cc(/C=C2/SC(=S)NC2=O)c(C)n1-c1cccnc1` [optovin], the “activity in Trpa1b mutant zebrafish” value in the data set on Trpa1b mutant larvae is on record as “abolished”. The “effect of DABCO on light-induced motion response” value in data set [4] is listed as “abolished”. Moreover, the “suppression of response by DABCO” value in data set [5] is recorded as “completely suppress”.

The values above are taken from patent publication US20220280644A1, “"TRPswitch" - A STEP FUNCTION CHEMO-OPTOGENETIC LIGAND” (UNIVERSITY OF UTAH RESEARCH FOUNDATION, priority 2019, published 2022).
